Reference: BindingDB's records for doi:10.1016/j.bmcl.2006.08.033 (University of Maryland, 2006)

Target: Guanine deaminase (Oryctolagus cuniculus)
Experiment: Inhibition of rabbit liver guanase

Row | SMILES | Ki [µM]
1 | O=C1NC(CO)C(=O)Nc2nc[nH]c21 (configuration not stated) [4,5,7,8-tetrahydro-6-hydroxymethyl-6H-imidazo[4,5-e][1,4]diazepine-5,8-dione] | 53.6
2 | O=C1NC(CO)C(=O)Nc2c1ncn2Cc1ccccc1 (configuration not stated) [3-benzyl-4,5,7,8-tetrahydro-6-hydroxymethyl-6H-imidazo[4,5-e][1,4]diazepine-5,8-dione] | 20.1
